Data as given in US9802907B2, “2-aryl selenazole compound and pharmaceutical composition thereof” (JIANGSU ATOM BIOSCIENCE AND PHARMACEUTICAL CO., LTD., priority 2012, dated 2017).
pIC50: −log10 of the molar value.

Target: xanthine oxidase (Bos taurus (Bovine), UniProt P80457)
Conditions: read-out: Xanthine Oxidase Inhibition Activity (IC50); xanthine oxidase sourced from milk, hypoxanthine substrate, 0.1 M Tris-HCl pH 7.5, 30° C.
Experimental: The inhibition of the activity of xanthine oxidase (XO) is tested through a coupled enzymatic reaction of xanthine oxidase, horseradish peroxidase (HRP) and a substrate thereof. First, xanthine oxidase oxidizes hypoxanthine to produce xanthine and hydrogen peroxide, and further oxidizes xanthine to produce uric acid and hydrogen peroxide. […] The fluorescence intensity of resorufin is determined by using a fluorescence microplate, which is in direct proportion to the activity of xanthine oxidase.
A certain amount of a test compound and a control compound, febuxostat (by Beijing Lianben Pharm-chemicals Tech. Co., Ltd.) were dissolved in DMSO (by Sinopharm Chemical Reagent Co., Ltd.). A 2.5-fold serial dilution of the test compound was diluted with DMSO in a 96-well polypropylene reaction plate (by Greiner Bio One), so as to obtain a 200-fold dilution. The solution was further diluted in ultrapure water to obtain a 3-fold serial dilution. […]
9 μL reaction solution A and 9 μL 3-fold serial dilution of the test compound were mixed in a 96-well test plate (by Greiner Bio One), placed on a flat plate type oscillator, and mixed at 30° C. for 30 min at 100 rpm. […] The fluorescence intensity at 530 nm exciting light and 590 nm emitted light was determined by using a fluorescence microplate (Perkin Elmer Vitor X4).

xanthine oxidase, sequence (P80457 whole entry): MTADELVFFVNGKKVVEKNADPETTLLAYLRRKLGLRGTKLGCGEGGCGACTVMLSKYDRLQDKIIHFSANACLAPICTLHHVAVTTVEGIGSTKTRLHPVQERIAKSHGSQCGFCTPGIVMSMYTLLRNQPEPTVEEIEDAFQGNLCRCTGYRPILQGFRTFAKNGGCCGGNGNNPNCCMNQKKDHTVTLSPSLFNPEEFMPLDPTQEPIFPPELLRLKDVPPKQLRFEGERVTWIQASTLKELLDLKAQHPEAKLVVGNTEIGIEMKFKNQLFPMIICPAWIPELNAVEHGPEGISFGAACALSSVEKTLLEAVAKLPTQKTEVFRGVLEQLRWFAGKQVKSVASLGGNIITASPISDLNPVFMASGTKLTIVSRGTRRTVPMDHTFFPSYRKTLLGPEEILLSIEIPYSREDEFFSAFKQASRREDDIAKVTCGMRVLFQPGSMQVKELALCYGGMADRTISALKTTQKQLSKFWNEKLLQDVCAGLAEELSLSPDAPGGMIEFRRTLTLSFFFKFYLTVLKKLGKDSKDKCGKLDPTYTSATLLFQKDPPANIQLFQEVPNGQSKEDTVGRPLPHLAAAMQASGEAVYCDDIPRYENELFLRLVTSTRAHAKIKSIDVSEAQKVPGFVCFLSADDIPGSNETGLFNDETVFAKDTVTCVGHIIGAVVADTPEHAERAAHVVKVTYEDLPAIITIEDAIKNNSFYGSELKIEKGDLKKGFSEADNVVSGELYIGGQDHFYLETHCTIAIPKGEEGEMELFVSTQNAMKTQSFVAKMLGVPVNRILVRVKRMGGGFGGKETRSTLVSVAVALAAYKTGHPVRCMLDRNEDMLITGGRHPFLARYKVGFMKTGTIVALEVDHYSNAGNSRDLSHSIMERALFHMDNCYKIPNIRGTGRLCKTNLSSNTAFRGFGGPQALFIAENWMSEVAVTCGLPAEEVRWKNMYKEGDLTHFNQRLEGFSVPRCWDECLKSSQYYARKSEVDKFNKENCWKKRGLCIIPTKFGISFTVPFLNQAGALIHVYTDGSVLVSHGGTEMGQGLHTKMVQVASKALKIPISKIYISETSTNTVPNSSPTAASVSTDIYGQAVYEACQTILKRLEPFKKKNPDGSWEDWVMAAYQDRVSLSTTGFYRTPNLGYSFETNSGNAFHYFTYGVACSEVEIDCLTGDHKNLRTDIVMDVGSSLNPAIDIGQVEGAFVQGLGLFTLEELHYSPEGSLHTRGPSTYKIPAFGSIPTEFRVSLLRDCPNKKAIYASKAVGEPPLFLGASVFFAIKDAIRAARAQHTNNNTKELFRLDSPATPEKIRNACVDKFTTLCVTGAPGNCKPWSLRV

## 2-[3-bromo-4-(aniline formyl)-phenyl]-4-methyl-selenazole-5-carboxylic acid [Compound 67]
  pIC50: < 7.00
